The record followed here is USRE50528E1, “Compounds and compositions for modulating EGFR mutant kinase activities” (Yuhan Corporation, priority 2014, dated 2025).

In experiment [1] the test system is PC9 (EGFR del E746-A750 mutant). The experiment is described as follows: Cell viability assay, PC9.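 As to all read-outs here: NSCLC PC9 cells, whose viability relies on EGFR del E746-A750, exposed to serially diluted compound for 72 h at 37 °C, ATPLite read-out, IC50, H2073 as EGFR wildtype line.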 It counts as cell-based. The following applies: for Selectivity over wildtype, Wildtype vs mutant H2073/PC9 (fold): cellular potency ratio; for IC50: cellular potency, 72-hour incubation, ATPLite, read-out: EGFR Mutants PC9.
The target of experiment [2] is T1, EGFR mutant Del19/T790M (Homo sapiens, UniProt P00533, DEL746-750/T790M).
T1 construct: truncated human JAK3, EGFR mutants such as del E746-A750; purchased Carna Biosciences
T1 sequence (P00533 with tags, fused parts or gaps DEL746-750/T790M limits assumed): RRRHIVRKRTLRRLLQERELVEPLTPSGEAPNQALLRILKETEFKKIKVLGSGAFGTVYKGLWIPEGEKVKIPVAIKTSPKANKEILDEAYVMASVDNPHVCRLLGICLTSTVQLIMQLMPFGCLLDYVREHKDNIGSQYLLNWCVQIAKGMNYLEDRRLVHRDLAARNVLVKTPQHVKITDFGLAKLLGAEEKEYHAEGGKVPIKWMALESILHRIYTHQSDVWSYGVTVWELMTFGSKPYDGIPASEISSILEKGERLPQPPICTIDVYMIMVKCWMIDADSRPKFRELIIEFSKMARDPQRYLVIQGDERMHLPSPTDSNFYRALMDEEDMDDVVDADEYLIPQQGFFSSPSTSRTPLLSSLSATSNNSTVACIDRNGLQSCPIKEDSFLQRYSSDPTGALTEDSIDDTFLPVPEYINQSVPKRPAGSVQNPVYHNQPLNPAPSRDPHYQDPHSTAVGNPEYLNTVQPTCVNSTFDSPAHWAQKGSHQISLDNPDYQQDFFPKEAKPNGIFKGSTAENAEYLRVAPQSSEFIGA
Nature of the experiment: Kinase inhibition assay, EGFR del E746-A750/T790M. In kind it is biochemical. The following applies: read-out: EGFR mutants Del19/T790M.

The target in experiment [3] is T2, EGFR mutant L858R/T790M (Homo sapiens, UniProt P00533, L858R/T790M).
T2 construct: truncated human JAK3, EGFR mutants such as del E746-A750; purchased Carna Biosciences
T2 sequence (P00533 669-1210 T790M/L858R limits assumed): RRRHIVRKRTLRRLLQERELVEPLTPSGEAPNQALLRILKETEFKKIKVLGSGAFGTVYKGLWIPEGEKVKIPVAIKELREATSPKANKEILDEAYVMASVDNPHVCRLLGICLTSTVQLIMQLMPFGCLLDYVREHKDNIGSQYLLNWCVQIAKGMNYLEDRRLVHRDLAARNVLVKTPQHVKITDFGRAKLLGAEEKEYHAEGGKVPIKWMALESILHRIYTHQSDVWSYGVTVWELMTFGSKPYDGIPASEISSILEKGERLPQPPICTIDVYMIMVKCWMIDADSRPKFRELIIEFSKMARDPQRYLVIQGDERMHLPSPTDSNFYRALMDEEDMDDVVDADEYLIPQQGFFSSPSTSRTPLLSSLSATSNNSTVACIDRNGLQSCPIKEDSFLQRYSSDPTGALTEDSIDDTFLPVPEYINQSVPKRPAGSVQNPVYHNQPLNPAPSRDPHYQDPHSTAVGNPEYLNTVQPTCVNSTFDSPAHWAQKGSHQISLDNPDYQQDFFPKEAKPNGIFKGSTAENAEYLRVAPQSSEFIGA
The experiment is described as follows: Kinase inhibition assay, EGFR L858R/T790M.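 Also: truncated human enzyme preincubated two hours with compound, then one hour with one millimolar ATP and ULight-PolyGT peptide, Europium-labeled antibody detection, IC50.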 In kind it is biochemical. The following applies: read-out: EGFR mutants L858R/T790M.

Experiment [4] concerns the target T3, SYK (Homo sapiens, UniProt P43405).
T3 construct: Purified human, full-length SYK, KDR; purchased Carna Biosciences
The experiment is described as follows: Kinase inhibition assay, SYK.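 Also: purified full-length human SYK pre-incubated 30 min with compound, then ULight-TK peptide phosphorylation for 1 h, detected with Europium-labeled antibody in Lance buffer.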 It counts as biochemical. The following applies: biochemical potency.

Experiment [5] has as its target T4, EGFR mutant L858R (Homo sapiens, UniProt P00533, L858R).
T4 construct: truncated human JAK3, EGFR mutants such as del E746-A750; purchased Carna Biosciences
Nature of the experiment: Kinase inhibition assay, EGFR L858R.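 Also: truncated human EGFR L858R kinase with compound preincubation, ULight-PolyGT peptide phosphorylation read by Europium-antibody Lance detection, IC50.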 It counts as biochemical. The following applies: read-out: EGFR mutants L858R.

For experiment [6], the target named is T5, EGFR mutant Del19 (E746-A750) (Homo sapiens, UniProt P00533, DEL746-750).
T5 construct: truncated human JAK3, EGFR mutants such as del E746-A750; purchased Carna Biosciences
T5 sequence (P00533 with tags, fused parts or gaps DEL746-750 limits assumed): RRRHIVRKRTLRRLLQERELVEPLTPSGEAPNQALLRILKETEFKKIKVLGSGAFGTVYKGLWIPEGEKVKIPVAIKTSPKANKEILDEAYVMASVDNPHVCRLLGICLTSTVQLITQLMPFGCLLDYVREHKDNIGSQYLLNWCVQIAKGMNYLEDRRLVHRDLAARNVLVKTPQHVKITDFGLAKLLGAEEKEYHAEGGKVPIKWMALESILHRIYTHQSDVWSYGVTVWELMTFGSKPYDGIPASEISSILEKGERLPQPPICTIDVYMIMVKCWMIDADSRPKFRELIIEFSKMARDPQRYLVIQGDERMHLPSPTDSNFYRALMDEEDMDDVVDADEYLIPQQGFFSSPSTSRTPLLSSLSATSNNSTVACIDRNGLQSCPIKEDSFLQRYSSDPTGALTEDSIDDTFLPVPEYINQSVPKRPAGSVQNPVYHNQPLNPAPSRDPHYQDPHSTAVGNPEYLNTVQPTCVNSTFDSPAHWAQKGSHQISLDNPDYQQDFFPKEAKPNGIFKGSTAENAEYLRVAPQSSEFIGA
Nature of the experiment: Kinase inhibition assay, EGFR del E746-A750.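 Also: truncated human EGFR mutant kinase, two-hour preincubation with compound, then one-hour reaction with ATP and ULight-PolyGT peptide, LANCE Europium-antibody phosphorylation readout, IC50.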 It counts as biochemical. The following applies: read-out: EGFR mutants Del19 (E746-A750).

Experiment [7] has as its system H2073 (EGFR wildtype). Nature of the experiment: Cell viability assay, H2073.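 Also: NSCLC cell line whose survival relies on wildtype EGFR, treated with serially diluted compound, cytotoxic effect judged from remaining cell viability.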 In kind it is cell-based. The following applies: NCI-H2073; cellular potency; 72-hour incubation; ATPLite.
In experiment [8] the test system is H1975 (EGFR L858R/T790M mutant). Nature of the experiment: Cell viability assay, H1975.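 As to all read-outs here: NSCLC cells whose survival relies on EGFR L858R/T790M, exposed 72 h to serially diluted compound, ATP-based viability readout, with the H2073 line (wildtype EGFR dependent) as wildtype comparator.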 In kind it is cell-based. The following applies: for IC50: Homo sapiens, NCI-H1975, cellular potency, 72-hour incubation, ATPLite, read-out: EGFR Mutants H1975; for Selectivity over wildtype, Wildtype vs mutant H2073/H1975 (fold): cellular potency ratio.
The target of experiment [9] is T6, JAK3 (Homo sapiens, UniProt P52333).
T6 construct: EGFR and JAK3 (JH1domain-catalytic) kinases, and mutant forms thereof; purchased Carna Biosciences
T6 sequence (P52333 822-1111 limits assumed): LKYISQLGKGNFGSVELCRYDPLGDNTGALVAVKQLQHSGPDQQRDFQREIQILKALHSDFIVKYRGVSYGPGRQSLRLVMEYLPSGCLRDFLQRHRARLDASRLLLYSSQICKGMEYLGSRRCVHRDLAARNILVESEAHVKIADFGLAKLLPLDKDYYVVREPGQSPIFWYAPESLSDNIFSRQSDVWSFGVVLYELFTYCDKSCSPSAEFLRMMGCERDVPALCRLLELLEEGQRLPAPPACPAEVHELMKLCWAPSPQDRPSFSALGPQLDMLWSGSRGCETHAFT
The experiment is described as follows: Kinase inhibition assay, JAK3.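 Also: IC50 against purified truncated human JAK3 preincubated with compound, then reacted with ATP and ULight-Jak1 peptide, phosphorylation read by Europium-labeled antibody LANCE detection.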 The following applies: biochemical potency.

Experiment [10] has as its target T7, EGFR mutant T790M (Homo sapiens, UniProt P00533, T790M).
T7 construct: truncated human JAK3, EGFR mutants such as del E746-A750; purchased Carna Biosciences
Nature of the experiment: Kinase inhibition assay, EGFR mutant T790M.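 Also: truncated human EGFR mutant enzyme preincubated two hours with compound, then ATP plus ULight-PolyGT peptide for one hour, Europium-labeled antibody LANCE detection, IC50.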 The following applies: biochemical potency.

For experiment [11], the target named is T8, KDR (Homo sapiens, UniProt P35968).
T8 construct: Purified human, full-length SYK, KDR; purchased Carna Biosciences
T8 sequence (P35968 20-1356): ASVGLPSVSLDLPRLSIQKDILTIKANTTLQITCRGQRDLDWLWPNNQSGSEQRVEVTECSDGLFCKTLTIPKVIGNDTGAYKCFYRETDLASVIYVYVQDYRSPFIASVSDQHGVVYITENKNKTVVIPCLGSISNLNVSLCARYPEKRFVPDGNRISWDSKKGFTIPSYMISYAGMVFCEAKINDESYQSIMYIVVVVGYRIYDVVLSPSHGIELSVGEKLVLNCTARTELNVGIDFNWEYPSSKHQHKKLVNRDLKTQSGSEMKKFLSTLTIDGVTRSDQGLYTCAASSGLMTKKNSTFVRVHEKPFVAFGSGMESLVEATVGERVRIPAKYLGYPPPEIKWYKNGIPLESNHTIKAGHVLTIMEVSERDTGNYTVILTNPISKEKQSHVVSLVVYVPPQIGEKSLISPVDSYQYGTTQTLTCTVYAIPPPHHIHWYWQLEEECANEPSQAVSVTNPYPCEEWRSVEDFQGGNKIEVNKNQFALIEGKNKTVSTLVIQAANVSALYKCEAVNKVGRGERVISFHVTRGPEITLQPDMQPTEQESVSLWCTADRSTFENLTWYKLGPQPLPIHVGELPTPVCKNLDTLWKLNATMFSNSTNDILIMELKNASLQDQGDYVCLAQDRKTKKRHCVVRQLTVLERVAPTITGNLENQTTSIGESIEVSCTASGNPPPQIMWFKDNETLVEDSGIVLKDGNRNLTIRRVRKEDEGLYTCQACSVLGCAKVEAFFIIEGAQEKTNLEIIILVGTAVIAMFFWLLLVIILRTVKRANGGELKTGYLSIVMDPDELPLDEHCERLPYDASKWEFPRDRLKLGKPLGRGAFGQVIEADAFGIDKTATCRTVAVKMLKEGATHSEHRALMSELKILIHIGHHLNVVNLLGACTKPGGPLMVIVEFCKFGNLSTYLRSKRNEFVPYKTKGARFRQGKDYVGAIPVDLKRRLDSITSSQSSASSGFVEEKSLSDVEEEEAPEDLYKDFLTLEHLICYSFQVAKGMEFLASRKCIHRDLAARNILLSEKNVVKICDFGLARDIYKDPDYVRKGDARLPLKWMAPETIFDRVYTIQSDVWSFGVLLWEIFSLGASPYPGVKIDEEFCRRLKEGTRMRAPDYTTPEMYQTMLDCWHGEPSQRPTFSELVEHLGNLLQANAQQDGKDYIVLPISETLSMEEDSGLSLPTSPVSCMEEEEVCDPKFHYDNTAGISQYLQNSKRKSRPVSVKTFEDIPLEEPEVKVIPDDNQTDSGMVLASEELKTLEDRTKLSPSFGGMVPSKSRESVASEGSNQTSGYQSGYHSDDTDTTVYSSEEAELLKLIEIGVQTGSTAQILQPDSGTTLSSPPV
Nature of the experiment: Kinase inhibition assay, KDR.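 Also: purified full-length human KDR, 30 min preincubation with compound, then 1 h reaction with ATP and Ulight-Jak1 peptide substrate, phosphorylation read by Lance Europium antibody detection.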 It counts as biochemical. The following applies: biochemical potency.

The structures appear in SMILES notation.

T4 sequence (P00533 669-1210 L858R limits assumed): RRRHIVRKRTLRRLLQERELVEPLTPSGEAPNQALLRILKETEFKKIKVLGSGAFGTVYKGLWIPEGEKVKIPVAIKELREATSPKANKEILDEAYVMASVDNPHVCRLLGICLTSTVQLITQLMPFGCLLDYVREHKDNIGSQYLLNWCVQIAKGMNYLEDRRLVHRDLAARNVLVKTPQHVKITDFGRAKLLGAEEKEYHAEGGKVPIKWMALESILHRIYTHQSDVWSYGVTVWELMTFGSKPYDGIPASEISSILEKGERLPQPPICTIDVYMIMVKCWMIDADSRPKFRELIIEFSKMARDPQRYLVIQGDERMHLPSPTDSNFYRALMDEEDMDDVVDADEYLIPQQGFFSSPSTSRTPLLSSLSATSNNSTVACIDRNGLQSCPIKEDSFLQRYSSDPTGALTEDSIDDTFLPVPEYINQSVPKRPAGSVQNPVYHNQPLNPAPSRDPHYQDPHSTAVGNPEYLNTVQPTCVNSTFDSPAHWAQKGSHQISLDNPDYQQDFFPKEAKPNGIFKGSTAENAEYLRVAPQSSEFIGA
T7 sequence (P00533 669-1210 T790M limits assumed): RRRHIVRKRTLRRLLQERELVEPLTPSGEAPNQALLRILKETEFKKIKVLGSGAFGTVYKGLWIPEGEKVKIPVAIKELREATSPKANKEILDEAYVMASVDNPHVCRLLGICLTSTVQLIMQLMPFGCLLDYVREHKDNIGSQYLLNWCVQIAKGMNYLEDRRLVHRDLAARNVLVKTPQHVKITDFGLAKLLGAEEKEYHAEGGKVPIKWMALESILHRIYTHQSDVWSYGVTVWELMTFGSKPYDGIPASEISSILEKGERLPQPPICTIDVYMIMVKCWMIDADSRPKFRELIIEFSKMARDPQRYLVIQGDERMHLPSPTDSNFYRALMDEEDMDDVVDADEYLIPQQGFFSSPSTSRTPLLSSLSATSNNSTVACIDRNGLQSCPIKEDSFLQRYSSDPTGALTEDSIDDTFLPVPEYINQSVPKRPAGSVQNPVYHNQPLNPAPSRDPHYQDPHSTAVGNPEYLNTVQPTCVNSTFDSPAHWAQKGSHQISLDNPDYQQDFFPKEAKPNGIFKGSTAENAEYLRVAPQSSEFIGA

Consider `C=CC(=O)Nc1cc(Nc2ncc(Cl)c(-n3cc(CN4C[C@@H](O)[C@@H](O)C4)c(C)n3)n2)c(OC)cc1N1CCN(C)CC1` [Compound 54, N-(5-(5-chloro-4-(4-(((3R,4S)-3,4-dihydroxypyrrolidin-1-yl)methyl)-3-methyl-1H-pyrazol-1-yl)pyrimidin-2-ylamino)-4-methoxy-2-(4-methylpiperazin-1-yl)phenyl)acrylamide], for which the “Selectivity over wildtype, Wildtype vs mutant H2073/PC9 (fold)” value (from here on “Selectivity … vs mutant H2073/PC9 (fold)”) in experiment [1] is listed as 20-100 fold. Besides, the IC50 in experiment [1] was 20 to 200 nM; in experiment [2], less than 20 nM; in experiment [3], less than 20 nM; in experiment [4] it was more than 1000 nM; in [5] it was 20 to 200 nM; in experiment [6], less than 20 nM. Further, the IC50 in experiment [7] was more than 1000 nM; in [8] it was 201 to 1000 nM; in experiment [9], less than 20 nM; in experiment [10], less than 20 nM; in experiment [11], more than 1000 nM. For the same compound, in [8], the “Selectivity over wildtype, Wildtype vs mutant H2073/H1975 (fold)” value (shortened to “Selectivity … vs mutant H2073/H1975 (fold)”) was less than 20 fold.

Consider `C=CC(=O)Nc1cc(Nc2ncc(C)c(-n3cc(CN4CC(O)C4)c(C)n3)n2)c(OC)cc1N1CCN(C)CC1` [Compound 29, N-(5-(4-(4-((3-hydroxyazetidin-1-yl)methyl)-3-methyl-1H-pyrazol-1-yl)-5-methylpyrimidin-2-ylamino)-4-methoxy-2-(4-methylpiperazin-1-yl)phenyl)acrylamide], for which, in [1], the “Selectivity … vs mutant H2073/PC9 (fold)” value was less than 20 fold. The IC50 is 20 to 200 nM in [1]; less than 20 nM in [2]; less than 20 nM in [3]; 20 to 200 nM in experiment [4]; less than 20 nM in experiment [5]; less than 20 nM in experiment [6]. Moreover, the IC50 in experiment [7] was more than 1000 nM; in [8], 20 to 200 nM; in experiment [9], less than 20 nM; in [10] it was less than 20 nM; in experiment [11] it was more than 1000 nM. Further, the “Selectivity … vs mutant H2073/H1975 (fold)” value in experiment [8] is on record as less than 20 fold.

In the case of `C=CC(=O)Nc1cc(Nc2ncc(C)c(-n3cc(CN4CCC4)cn3)n2)c(OC)cc1N1CCN(C)CC1` [Compound 36, N-(5-(4-(4-(azetidin-1-ylmethyl)-1H-pyrazol-1-yl)-5-methylpyrimidin-2-ylamino)-4-methoxy-2-(4-methylpiperazin-1-yl)phenyl)acrylamide], the “Selectivity … vs mutant H2073/PC9 (fold)” value in experiment [1] is reported as 20-100 fold. Also, the IC50 in experiment [1] was 20 to 200 nM; in experiment [2] it was less than 20 nM; in experiment [3], less than 20 nM; in [4], more than 1000 nM; in experiment [5], less than 20 nM; in experiment [6], less than 20 nM. Also, the IC50 in experiment [7] is more than 1000 nM; in [8] it was 20 to 200 nM; in experiment [9], less than 20 nM; in experiment [10] it was less than 20 nM; in experiment [11] it was more than 1000 nM. In experiment [8], the “Selectivity … vs mutant H2073/H1975 (fold)” value is 20-100 fold.

As for `C=CC(=O)Nc1cc(Nc2ncc(C)c(-n3cc(CN(C)C)c(C(C)C)n3)n2)c(OC)cc1N1CCOCC1` [Compound 124, N-(5-(4-(4-((dimethylamino)methyl)-3-isopropyl-1H-pyrazol-1-yl)-5-methylpyrimidin-2-ylamino)-4-methoxy-2-morpholinophenyl)acrylamide], in experiment [1], the “Selectivity … vs mutant H2073/PC9 (fold)” value is on record as more than 200 fold. Besides, the IC50 in [1] is less than 20 nM; in [2], less than 20 nM; in experiment [3], less than 20 nM; in experiment [4], 20 to 200 nM; in [5], less than 20 nM; in [6], less than 20 nM. Moreover, the IC50 in experiment [7] was more than 1000 nM; in experiment [8] it was less than 20 nM; in experiment [9] it was less than 20 nM; in [10] it was less than 20 nM; in [11], more than 1000 nM. The “Selectivity … vs mutant H2073/H1975 (fold)” value in experiment [8] is given as more than 200 fold.

As for `C=CC(=O)Nc1cc(Nc2ncc(C)c(-n3cc(CN4CC(O)C4)cn3)n2)c(OC)cc1N1CCOCC1` [Compound 19, N-(5-(4-(4-((3-hydroxyazetidin-1-yl)methyl)-1H-pyrazol-1-yl)-5-methylpyrimidin-2-ylamino)-4-methoxy-2-morpholinophenyl)acrylamide], in [1], the “Selectivity … vs mutant H2073/PC9 (fold)” value was 100-200 fold. Moreover, the IC50 in experiment [1] was less than 20 nM; in experiment [2], less than 20 nM; in experiment [3], less than 20 nM; in [4] it was 20 to 200 nM; in experiment [5], less than 20 nM; in experiment [6] it was less than 20 nM. The IC50 in experiment [7] is more than 1000 nM; in experiment [8], 20 to 200 nM; in [9], less than 20 nM; in [10], less than 20 nM; in experiment [11], 201 to 1000 nM. Moreover, the “Selectivity … vs mutant H2073/H1975 (fold)” value in experiment [8] is 20-100 fold.

For the compound `C=CC(=O)Nc1cc(Nc2nccc(-n3cc(CN4CCC4)c(C4CC4)n3)n2)c(OC)cc1N1CCOCC1` [Compound 55, N-(5-(4-(4-(azetidin-1-ylmethyl)-3-cyclopropyl-1H-pyrazol-1-yl)pyrimidin-2-ylamino)-4-methoxy-2-morpholinophenyl)acrylamide], in experiment [1], the “Selectivity … vs mutant H2073/PC9 (fold)” value is more than 200 fold. Also, the IC50 in experiment [1] was less than 20 nM; in experiment [2] it was less than 20 nM; in [3], less than 20 nM; in [4], more than 1000 nM; in experiment [5], less than 20 nM; in experiment [6], less than 20 nM. Further, the IC50 in [7] was more than 1000 nM; in experiment [8] it was 20 to 200 nM; in experiment [9], less than 20 nM; in [10], less than 20 nM; in [11], more than 1000 nM. Also, the “Selectivity … vs mutant H2073/H1975 (fold)” value in experiment [8] is on record as 101-200 fold.

In the case of `C=CC(=O)Nc1cc(Nc2ncc(C)c(-n3cc(CN4CCC4)c(C)n3)n2)c(OC)cc1N1CCOCC1` [Compound 76, N-(5-(4-(4-(azetidin-1-ylmethyl)-3-methyl-1H-pyrazol-1-yl)-5-methylpyrimidin-2-ylamino)-4-methoxy-2-morpholinophenyl)acrylamide], in experiment [1], the “Selectivity … vs mutant H2073/PC9 (fold)” value is on record as 101-200 fold. For the same compound, the IC50 in [1] is 20 to 200 nM; in experiment [2] it was less than 20 nM; in experiment [3] it was less than 20 nM; in [4] it was 201 to 1000 nM; in [5] it was less than 20 nM; in [6], less than 20 nM. The IC50 in [7] is more than 1000 nM; in experiment [8], 20 to 200 nM; in experiment [9], less than 20 nM; in experiment [10] it was less than 20 nM; in experiment [11] it was more than 1000 nM. Also, the “Selectivity … vs mutant H2073/H1975 (fold)” value in [8] is on record as 101-200 fold.

For `C=CC(=O)Nc1cc(Nc2nccc(-n3cc(CN(C)C)c(C)n3)n2)c(OC)cc1N(C)C` [Compound 71, N-(2-(dimethylamino)-5-(4-(4-((dimethylamino)methyl)-3-methyl-1H-pyrazol-1-yl)pyrimidin-2-ylamino)-4-methoxyphenyl)acrylamide], in experiment [1], the “Selectivity … vs mutant H2073/PC9 (fold)” value is listed as more than 200 fold. Besides, the IC50 in experiment [1] is less than 20 nM; in experiment [2], less than 20 nM; in experiment [3], less than 20 nM; in experiment [4], 201 to 1000 nM; in experiment [5] it was less than 20 nM; in [6], less than 20 nM. In addition, the IC50 in experiment [7] was more than 1000 nM; in [8] it was less than 20 nM; in experiment [9], less than 20 nM; in experiment [10], less than 20 nM; in experiment [11], more than 1000 nM. Also, the “Selectivity … vs mutant H2073/H1975 (fold)” value in experiment [8] is listed as more than 200 fold.

Consider `C=CC(=O)Nc1cc(Nc2ncc(C)c(-n3cc(CN4CCC4)c(C4CC4)n3)n2)c(OC)cc1N1CCOCC1` [Compound 123, N-(5-(4-(4-(azetidin-1-ylmethyl)-3-cyclopropyl-1H-pyrazol-1-yl)-5-methylpyrimidin-2-ylamino)-4-methoxy-2-morpholinophenyl)acrylamide], for which the “Selectivity … vs mutant H2073/PC9 (fold)” value in experiment [1] is more than 200 fold. Also, the IC50 is less than 20 nM in [1]; less than 20 nM in [2]; less than 20 nM in [3]; 201 to 1000 nM in experiment [4]; less than 20 nM in [5]; less than 20 nM in [6]. Moreover, the IC50 was more than 1000 nM in [7]; less than 20 nM in experiment [8]; less than 20 nM in experiment [9]; less than 20 nM in [10]; more than 1000 nM in [11]. In addition, in experiment [8], the “Selectivity … vs mutant H2073/H1975 (fold)” value was more than 200 fold.
